According to patent US20220159969A1, “COMPOSITION AND METHOD FOR ENHANCING SPORE GERMINATION AND BIOLOGICAL EFFICACY” (priority 2019, published 2022):

Columns and labels:
Type in all cases: in vivo
[1] = tested on: C. rosea f. catenulata J1446 spores; assay: Percent germination of C. rosea f. catenulata J1446 on strawberry leaf discs; details: after 24 h on strawberry leaf discs; germinant added to Prestop® 0.025% (glycine betaine 0.06%/0.6%, yeast extract 0.04%/0.2%) vs Prestop® alone; FIG. 1
Experimental: (§1) Young strawberry plants (Fragaria×ananassa; “Merced” variety) were allowed to grow at least a week before plants were selected for experiments by healthy appearance and having large leaves facing upwards. Spore counts for C. rosea f. catenulata J1446 in the package of Prestop WG used were calculated via haemocytometer to be 1.4×10^10 spores/g and viability of the spores was checked using the MPN (most probably number) method and C. rosea f. catenulata J1446 was calculated to be 3×10^9 CFU/g. […] On average, 0.5 ml of treatment was calculated to be applied per plant. […] The number of spores obtained from each slip was counted using a hemocytometer to determine deposition rate. […]
On the same day, after spraying, two 6 mm leaf discs were cut using a sterilized staples hole punch from two different leaves per plant from five sprayed strawberry plants per treatment group per time period (6, 7, 8 and 24 h) and then dyed with 5 ul lactophenol cotton blue. […] Three viewing areas were chosen at random on each leaf disc and 100 spores were counted: the number that germinated (germ tubes visible at twice the length of the spore) out of that 100 was recorded. Average germination percentages were analyzed per treatment group and per time period.
Data for percent germination assays on strawberry leaves was normal when the distribution was analyzed for both greenhouse and environmental chamber studies. […]

[2] = tested on: C. rosea f. catenulata J1446; assay: Hyphal growth of C. rosea f. catenulata J1446 from strawberry leaf discs onto agar plates (greenhouse); details: discs cut 1, 2, 3, 6 days after greenhouse incubation, growth on plate 6 days; germinant added to Prestop® 0.025%; FIG. 2
Experimental: as §1
Two 6 mm leaf discs were cut using a sterilized staples hole punch from two different leaves per plant from five sprayed plants per treatment per time period (1, 2, 3, and 6 days after spraying) and placed adaxial side downwards onto paraquat-chloramphenicol agar (PCA) medium (0.1 mL paraquat, 200 mg chloramphenicol, and 12 g agar per liter of water). […] Growth around the leaf disc was measured with a ruler and recorded as average diameter of growth per day. […] Averages in treatments were analyzed.
Data for growth bioassays from 1, 2, 3, and 6 days of greenhouse incubation were all normal when distribution was analysed. […] Multiple comparisons of the mean (alpha=0.05) were analysed using a Tukey post hoc test.

Botrytis cinerea = assay: Greenhouse control of Botrytis cinerea on tomato plants (Example 2); details: Prestop® 0.003% combined with glycine betaine 0.05% or 0.2%, 5 days, necrotic area width, FIG. 3
Experimental: Botrytis cinerea was grown on potato dextrose broth for 1 to 2 weeks without shaking. The resulting mycelial and spores were recovered to produce a liquid inoculum.
Tomato plants, variety Admiro (stage: 3-leaf), were sprayed with the B. cinerea inoculum (5000 sp/ml) then allowed to dry. Then, the treatments were applied by spraying the inoculated tomato plants.
The following treatments were tested (9 repetitions): (T1) Prestop® (C. rosea f. catenulatum J1446) 0.003%; (T2) Prestop® (C. rosea f. catenulatum J1446) 0.003%+glycine betaine (Intracell®, Lallemand) 0.05%; (T3) Prestop® (C. rosea f. catenulatum J1446) 0.003%+glycine betaine (Intracell®, Lallemand) 0.2%; (T4) glycine betaine (Intracell®, Lallemand) 0.2% and (T5) water.
Colby's equation was used to determine the effects expected from the components, as described above. The results were measured at 5 days after the application of the components.

[3] = tested on: apple scab (Venturia inaequalis); assay: Apple scab foliar symptoms on potted Gala apple trees (Example 6)
Experimental: The trial was carried out on potted trees of the Gala variety. Six trees per treatment were reserved for this test.
Two application strategies were tested: (a) one application four days before pathogen inoculation; and (b) a first application four days before pathogen inoculation and a second application after pathogen inoculation when a cumulative of 300° C./hour was reached after the inoculation.
A solution of conidia of V. inaequalis was prepared from 2018 scabbed leaves stored in the freezer. The trees were kept under fog for at least one hour before contamination and then at least 12 hours afterwards. The duration was adapted according to ambient temperature and humidity. The spray volume was defined after a blank test to cover sufficient vegetation without reaching the runoff point (between 30 and 50 mL/tree). The treatments were applied using a hand-held sprayer and carried out four days before inoculation with the pathogen (strategies (a) and (b)) and within 300° C./H after inoculation for strategy (2) only.
The frequency and intensity of foliar symptoms of scab were observed. Observation was carried out four to five days after the start of the first spots, using a 0 to 4 rating scale. Trees were scored individually and were made on all the leaves of each tree.

## C[N+](C)(C)CC(=O)[O-] [glycine betaine]
[1]
  percentage of spore germination of C. rosea J1446: increased
[2]
  colonization of leaf discs by C. rosea J1446: significantly increased
Botrytis cinerea
  efficacy of Prestop® to control B. cinerea: increased
[3]; one application four days before inoculation + a second application after inoculation when a cumulative of 300° C./hour was reached
  Frequency of foliar symptoms of scab: 58.5%
[3]; one application four days before inoculation with the pathogen
  Frequency of foliar symptoms of scab: 59.6%
